Test results taken from US12637513B2, “Method of treating cancer by administering an inhibitor of erythropoietin receptor activity comprising either erythropoietin receptor or erythropoietin protein” (ImmunEdge, Inc., priority 2022, dated 2026).
pIC50: −log10 of the molar value.

Key:
[1] = system: CD11c^IntMHCII^HighXCR1^+ cDC1s / OT-II cells; experiment: In vitro Ag-specific Treg induction: pLN cDC1s loaded with Ova-thy cells and naïve OT-II cells; type: cell-based, mouse; settings: untreated cells 25.5%
PHD2 = PHD2 (Homo sapiens, UniProt Q9GZT9); settings: target PHD2; cited from earlier work
PHD1-3 = settings: target PHD1-3; cited from earlier work

PHD2, sequence (Q9GZT9 whole entry): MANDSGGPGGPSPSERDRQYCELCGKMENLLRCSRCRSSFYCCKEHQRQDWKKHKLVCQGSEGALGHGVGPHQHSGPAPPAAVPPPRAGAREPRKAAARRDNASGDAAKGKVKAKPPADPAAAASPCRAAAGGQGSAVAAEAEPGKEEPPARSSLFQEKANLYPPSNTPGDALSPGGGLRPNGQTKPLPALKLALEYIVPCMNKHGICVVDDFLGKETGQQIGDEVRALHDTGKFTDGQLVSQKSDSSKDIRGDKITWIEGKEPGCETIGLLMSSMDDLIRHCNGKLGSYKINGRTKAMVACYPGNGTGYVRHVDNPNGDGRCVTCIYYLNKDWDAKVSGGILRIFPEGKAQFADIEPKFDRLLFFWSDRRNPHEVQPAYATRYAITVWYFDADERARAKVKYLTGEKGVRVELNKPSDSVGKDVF

Molecule | pIC50 (PHD2) | also measured
CEPO: chemically modified EPO analog in which the Lys residues are carbamylated [reference compound] |  | FoxP3 expressing cells [1]: 69.3%
O=C(O)CNC(=O)c1c(O)c2ccccc2n(Cc2ccccc2)c1=O [IOX2] | 7.68 | 
COc1ccc(C(NC(=O)c2cnc(-c3cccnn3)nc2O)c2ccc(OC)cc2)cc1 [MK-8617] |  | pIC50 (PHD1-3): 7.85 to 9.00
O=C(O)CNC(=O)c1c(O)cc(CCc2ccccc2)n2ncnc12 [Enarodustat] | 5.24 to 6.66 | 
